# Activity calls are given as the source filed them.
# Experiments:
# [1] = molecular target: Heat shock protein HSP 90-alpha (Homo sapiens, UniProt P07900); format: functional, organism-based
# [2] = molecular target: T1, High affinity choline transporter 1 (Homo sapiens, UniProt Q9GZV3); experiment: human choline transporter blockers, potency – cell-based, 5-point CRC, membrane potential dye, dose response (AID 504840); format: functional
# T1 sequence (Q9GZV3 whole entry): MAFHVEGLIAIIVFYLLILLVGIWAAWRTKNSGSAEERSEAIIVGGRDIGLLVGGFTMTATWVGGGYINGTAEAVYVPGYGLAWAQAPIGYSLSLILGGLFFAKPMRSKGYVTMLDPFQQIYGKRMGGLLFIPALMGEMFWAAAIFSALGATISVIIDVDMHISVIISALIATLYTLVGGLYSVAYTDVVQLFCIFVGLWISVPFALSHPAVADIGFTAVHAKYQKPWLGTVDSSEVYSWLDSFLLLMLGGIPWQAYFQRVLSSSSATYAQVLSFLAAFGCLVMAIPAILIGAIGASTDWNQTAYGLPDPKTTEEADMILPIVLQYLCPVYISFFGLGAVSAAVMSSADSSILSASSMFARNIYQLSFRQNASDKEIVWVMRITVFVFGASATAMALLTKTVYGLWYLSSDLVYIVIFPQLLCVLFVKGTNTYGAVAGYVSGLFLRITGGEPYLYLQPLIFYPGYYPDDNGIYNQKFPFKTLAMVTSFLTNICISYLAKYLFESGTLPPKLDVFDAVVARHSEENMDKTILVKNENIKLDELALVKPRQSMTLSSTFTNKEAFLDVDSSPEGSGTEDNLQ
# [3] = molecular target: T2, Microphthalmia-associated transcription factor (Homo sapiens, UniProt O75030); experiment: reducers of TRPM1 reporter luminescence, concentration series – cell-based, SK-MEL-5, cherry-picked, set 3, MITF inhibitor project, dose response (AID 493073); format: functional;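 also: SK-MEL-5 melanoma cells with luciferase driven by the MITF target TRPM1 promoter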
# T2 sequence (O75030 whole entry): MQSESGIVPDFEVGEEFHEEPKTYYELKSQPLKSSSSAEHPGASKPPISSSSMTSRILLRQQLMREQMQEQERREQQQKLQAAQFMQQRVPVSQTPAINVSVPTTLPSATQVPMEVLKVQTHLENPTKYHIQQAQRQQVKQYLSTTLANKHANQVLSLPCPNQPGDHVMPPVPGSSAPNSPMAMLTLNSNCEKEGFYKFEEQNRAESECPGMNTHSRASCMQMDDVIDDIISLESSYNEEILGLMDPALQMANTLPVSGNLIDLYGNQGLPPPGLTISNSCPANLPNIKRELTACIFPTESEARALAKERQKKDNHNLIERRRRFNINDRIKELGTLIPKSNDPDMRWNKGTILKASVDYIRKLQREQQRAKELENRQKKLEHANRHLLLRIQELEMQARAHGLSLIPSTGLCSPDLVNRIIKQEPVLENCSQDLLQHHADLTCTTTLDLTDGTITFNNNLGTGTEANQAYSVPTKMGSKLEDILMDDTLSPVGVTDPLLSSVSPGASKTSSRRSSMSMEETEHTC
# [4] = molecular target: T3, Ubiquitin-conjugating enzyme E2 N (Homo sapiens, UniProt P61088); format: functional;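 also: Dose-response confirmation in a TR-FRET assay detecting UBC13-driven polyubiquitin chain formation, inhibition measured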
# T3 sequence (P61088 whole entry): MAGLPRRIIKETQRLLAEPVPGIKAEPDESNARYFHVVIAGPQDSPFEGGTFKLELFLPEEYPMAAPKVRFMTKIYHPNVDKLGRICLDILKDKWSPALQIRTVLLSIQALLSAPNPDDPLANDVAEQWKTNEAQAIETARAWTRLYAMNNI
# Fatty acid synthase [5] = molecular target: T4, Fatty acid synthase (Homo sapiens, UniProt P49327); experiment: inhibition of human FAS-TE enzyme activity – biochemical, kinetic fluorescence intensity, dose response (AID 624326); format: functional;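 also: rate of fluorescence rise from hydrolysis of a fluorogenic O-methyl fluorescein ester substrate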
# Fatty acid synthase [6] = molecular target: T4, Fatty acid synthase; experiment: inhibition of human FAS-TE enzyme activity – biochemical, endpoint fluorescence intensity, uHTS hits, dose response (AID 624327); format: functional;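 also: fluorescence from hydrolysis of an O-methyl fluorescein acyl ester substrate by the enzyme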
# Streptococcus = experiment: GAS UMAA2166 growth inhibition – luminescence, BacTiterGlo, counter-screen for streptokinase expression inhibitor project, dose response (AID 1915); format: functional, organism-based;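 also: potency for reduction of bacterial viability or growth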
# Streptokinase A = molecular target: T5, Streptokinase A (Streptococcus pyogenes serotype M1, UniProt P10520); experiment: viability-normalized secreted streptokinase activity reduction – plasminogen activation absorbance, OD405, dose response (AID 1914); format: functional, Streptococcus pyogenes M1 GAS;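 also: secreted streptokinase activity via plasminogen activation per viability signal from cell pellet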
# T5 sequence (P10520 whole entry): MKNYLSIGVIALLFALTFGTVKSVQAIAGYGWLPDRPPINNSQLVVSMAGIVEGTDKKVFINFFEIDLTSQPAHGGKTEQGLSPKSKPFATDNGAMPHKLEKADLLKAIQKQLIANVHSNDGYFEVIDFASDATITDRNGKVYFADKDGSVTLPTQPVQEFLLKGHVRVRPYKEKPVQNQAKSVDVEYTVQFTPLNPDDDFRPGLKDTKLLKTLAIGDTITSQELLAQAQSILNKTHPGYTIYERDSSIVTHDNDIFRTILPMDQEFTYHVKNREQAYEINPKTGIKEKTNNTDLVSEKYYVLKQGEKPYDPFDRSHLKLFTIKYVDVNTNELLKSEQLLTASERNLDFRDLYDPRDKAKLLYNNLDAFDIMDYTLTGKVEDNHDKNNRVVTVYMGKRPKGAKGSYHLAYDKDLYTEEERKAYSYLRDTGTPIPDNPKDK
# [7] = test system: Streptococcus sp. 'group A'; experiment: Streptococcus pyogenes SK(-)GAS viability under kanamycin – luminescence, BacTiterGlo, confirmation, counter-screen for streptokinase expression inhibitor project, dose response (AID 1900); format: functional, organism-based
# [8] = molecular target: T6, Heat shock factor protein 1 (Mus musculus, UniProt P38532); experiment: decrease of HSF1-responsive luciferase luminescence – cell-based, NIH3T3, dose retest, confirmation (AID 2382); format: functional;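 also: NIH3T3 fibroblasts with HSF1-driven luciferase reporter stressed by proteasome inhibitor MG132; luminescence from HSF1-driven luciferase expression after 8 hours of MG132 stress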
# T6 sequence (P38532 whole entry): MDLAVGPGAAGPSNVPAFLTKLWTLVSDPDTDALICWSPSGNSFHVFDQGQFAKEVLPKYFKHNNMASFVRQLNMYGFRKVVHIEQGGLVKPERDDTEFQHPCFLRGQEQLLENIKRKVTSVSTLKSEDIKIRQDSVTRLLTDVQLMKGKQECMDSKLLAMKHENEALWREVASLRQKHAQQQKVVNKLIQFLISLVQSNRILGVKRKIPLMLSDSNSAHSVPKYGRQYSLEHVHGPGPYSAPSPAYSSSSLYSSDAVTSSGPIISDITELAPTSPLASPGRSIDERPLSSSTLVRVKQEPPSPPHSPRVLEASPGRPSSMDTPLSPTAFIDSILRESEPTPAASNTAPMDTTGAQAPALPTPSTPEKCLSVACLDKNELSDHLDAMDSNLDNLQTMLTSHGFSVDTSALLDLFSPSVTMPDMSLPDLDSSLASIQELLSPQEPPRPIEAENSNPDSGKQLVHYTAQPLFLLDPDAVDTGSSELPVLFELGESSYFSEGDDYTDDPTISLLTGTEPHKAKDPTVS
# INS1 = experiment: INS-1E survival protection against cytokine death – cell-based, luminescence, retest, dose response (AID 449756); format: functional; conditions: Rattus norvegicus;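 also: cell death triggered by IL-1 beta plus TNF-alpha plus IFN-gamma mixture; protective hits raise ATP signal compared with cytokine alone wells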
# [9] = Luminescence Cell-Based Dose Retest to Confirm Inhibitors of Cancer Stem Cells. [Related pubchem assays (depositor defined):AID2717, AID2721]; format: functional; conditions: Homo sapiens
# cells [10] = format: functional, cell-based
# cells [11] = format: functional, cell-based; remark: listed apart in the source
# T4 sequence (P49327 whole entry): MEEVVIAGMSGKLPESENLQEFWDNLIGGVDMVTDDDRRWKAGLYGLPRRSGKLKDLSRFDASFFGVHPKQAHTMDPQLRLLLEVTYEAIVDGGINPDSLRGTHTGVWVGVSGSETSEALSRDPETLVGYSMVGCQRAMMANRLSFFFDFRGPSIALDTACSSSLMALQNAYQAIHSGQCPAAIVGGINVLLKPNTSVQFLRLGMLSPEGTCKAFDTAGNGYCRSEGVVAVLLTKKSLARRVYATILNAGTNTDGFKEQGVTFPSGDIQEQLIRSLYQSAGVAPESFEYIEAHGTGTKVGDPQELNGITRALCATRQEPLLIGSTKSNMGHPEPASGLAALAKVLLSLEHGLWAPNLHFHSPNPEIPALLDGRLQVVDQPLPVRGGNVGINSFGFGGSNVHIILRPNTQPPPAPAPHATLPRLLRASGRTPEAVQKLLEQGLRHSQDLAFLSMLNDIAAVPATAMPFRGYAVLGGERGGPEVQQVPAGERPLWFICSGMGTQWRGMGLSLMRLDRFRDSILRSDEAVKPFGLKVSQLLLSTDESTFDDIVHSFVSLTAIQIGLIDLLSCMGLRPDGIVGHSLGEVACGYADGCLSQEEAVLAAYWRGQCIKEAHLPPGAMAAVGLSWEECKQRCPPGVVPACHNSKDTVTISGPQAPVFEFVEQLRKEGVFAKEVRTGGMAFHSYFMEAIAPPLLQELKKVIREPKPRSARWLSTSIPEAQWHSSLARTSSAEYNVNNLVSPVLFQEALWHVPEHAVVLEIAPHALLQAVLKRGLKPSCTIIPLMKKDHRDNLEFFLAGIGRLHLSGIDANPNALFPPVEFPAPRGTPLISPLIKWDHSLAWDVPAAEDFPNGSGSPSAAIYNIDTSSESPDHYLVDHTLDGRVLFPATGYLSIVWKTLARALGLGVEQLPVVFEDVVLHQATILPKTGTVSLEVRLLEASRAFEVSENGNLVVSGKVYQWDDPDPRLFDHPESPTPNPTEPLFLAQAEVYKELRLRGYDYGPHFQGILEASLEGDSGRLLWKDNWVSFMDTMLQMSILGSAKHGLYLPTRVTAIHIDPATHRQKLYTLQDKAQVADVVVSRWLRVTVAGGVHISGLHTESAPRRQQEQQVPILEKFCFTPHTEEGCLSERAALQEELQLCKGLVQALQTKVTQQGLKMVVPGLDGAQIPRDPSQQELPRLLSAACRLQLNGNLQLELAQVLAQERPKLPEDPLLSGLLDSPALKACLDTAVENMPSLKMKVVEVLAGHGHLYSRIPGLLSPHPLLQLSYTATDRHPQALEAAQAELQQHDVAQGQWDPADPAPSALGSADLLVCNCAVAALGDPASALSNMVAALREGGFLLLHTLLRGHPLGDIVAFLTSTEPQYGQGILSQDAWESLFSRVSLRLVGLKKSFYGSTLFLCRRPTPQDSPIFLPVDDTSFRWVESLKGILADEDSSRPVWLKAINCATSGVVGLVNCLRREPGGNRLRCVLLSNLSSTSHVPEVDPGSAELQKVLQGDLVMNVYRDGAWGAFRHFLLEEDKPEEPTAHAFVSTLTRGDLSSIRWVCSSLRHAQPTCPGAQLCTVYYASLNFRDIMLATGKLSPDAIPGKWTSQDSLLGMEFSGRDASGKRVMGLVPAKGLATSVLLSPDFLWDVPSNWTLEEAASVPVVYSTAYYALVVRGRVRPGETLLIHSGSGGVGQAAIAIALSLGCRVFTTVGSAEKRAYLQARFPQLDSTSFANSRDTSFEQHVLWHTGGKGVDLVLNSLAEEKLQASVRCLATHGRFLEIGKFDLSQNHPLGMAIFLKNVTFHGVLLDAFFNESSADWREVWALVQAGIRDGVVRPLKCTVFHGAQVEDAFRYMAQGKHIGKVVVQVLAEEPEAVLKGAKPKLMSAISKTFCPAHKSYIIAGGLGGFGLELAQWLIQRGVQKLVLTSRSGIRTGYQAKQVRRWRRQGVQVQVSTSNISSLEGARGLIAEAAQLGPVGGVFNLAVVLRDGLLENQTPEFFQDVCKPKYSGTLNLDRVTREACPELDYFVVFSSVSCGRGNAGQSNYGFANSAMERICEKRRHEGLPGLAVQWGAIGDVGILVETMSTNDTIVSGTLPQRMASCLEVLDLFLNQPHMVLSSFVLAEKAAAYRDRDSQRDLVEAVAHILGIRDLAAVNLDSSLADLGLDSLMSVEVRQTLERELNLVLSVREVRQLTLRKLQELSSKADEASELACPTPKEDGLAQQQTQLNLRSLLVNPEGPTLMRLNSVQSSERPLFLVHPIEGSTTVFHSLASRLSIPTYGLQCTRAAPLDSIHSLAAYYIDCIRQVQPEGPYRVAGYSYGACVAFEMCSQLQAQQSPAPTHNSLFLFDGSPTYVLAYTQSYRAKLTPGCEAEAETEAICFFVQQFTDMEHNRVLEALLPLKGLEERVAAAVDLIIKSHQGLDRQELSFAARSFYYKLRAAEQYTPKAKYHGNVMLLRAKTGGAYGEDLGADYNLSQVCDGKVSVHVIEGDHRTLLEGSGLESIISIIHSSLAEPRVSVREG
compound,measurement,setting,value
CCN(CC)S(=O)(=O)c1cccc(C(=O)NCC(c2ccccc2)N(C)C)c1 (centres undefined),AC50,[1],3.2 µM (active)
COc1ccccc1/C=C1\SC(=O)N(CC(=O)NCCCn2ccnc2)C1=O,IC50,[2],19.1 µM (active)
CCN1c2ccccc2NC2C1C(C(C)=O)C(=O)N2c1ccc(Cl)cc1 (centres undefined),AC50,[3],12.7 µM (active)
Cc1ccc(C(=O)N2CCN(c3ccccc3)CC2)cc1S(=O)(=O)N1CCCC1,IC50,[2],11 µM (active)
COc1ccc(OCCCC(=O)Nc2ccc(S(=O)(=O)N3CCOCC3)cc2)cc1,IC50,[4],> 20 µM (inactive)
CC(=O)NC(C)c1cc(Cl)c2ccccc2c1O (centres undefined),IC50,[4],> 20 µM (inactive)
Cc1ccc(C(C)C)c(OCCOCCN2CCNCC2)c1,IC50,[2],13.8 µM (active)
O=C(CCC1CCCC1)NCCCNC(=O)CCC1CCCC1,IC50,[2],15.8 µM (active)
C=CC(n1cncn1)C(O)(c1ccccc1)c1ccccc1 (centres undefined),AC50,[1],0.826 µM (active)
Cc1ccc(C(=O)NCC(=O)OCc2nnc(-c3ccc([N+](=O)[O-])cc3)o2)cc1,IC50,Fatty acid synthase [5],5.56 µM (active)
same,IC50,Fatty acid synthase [6],4.73 µM (active)
O=C(N/N=C/c1ccccn1)c1cc(-c2ccccc2Cl)n[nH]1,IC50,[4],> 20 µM (inactive)
Cc1cccc(C)c1/N=C1\C(Cl)=C(O)OC1OC(=O)c1ccccc1 (centres undefined),IC50,Fatty acid synthase [5],4.54 µM (active)
same,IC50,Fatty acid synthase [6],4.46 µM (active)
Cc1ccc(N/N=C(\C=O)C(=O)c2ccc(Cl)cc2)cc1,EC50,Streptococcus,14.8 µM (active)
same,EC50,Streptokinase A,> 50 µM (not active)
same,EC50,[7],8.86 µM (active)
same,EC50,[8],4.78 µM (active)
same,AC50,[1],5.6 µM (active)
COc1ccc2nc(C)cc(SCC(=O)N/N=C/c3ccc(O)cc3O)c2c1,AC50,INS1,2.65 µM (active)
same,AC50,[3],10.1 µM (active)
same,AC50,[9],2.74 µM (active)
same,EC50,cells [10],12.9 µM (active)
same,EC50,cells [11],> 350 µM (not active)
